Measurements: patent US11028137B2, “Mutant islet amyloid polypeptides with improved solubility and methods for using the same” (priority 2017, dated 2021)
Where a SMILES comes first, the peptide text is derived from it.

Experiments:
[1] = Thioflavin-T fluorescence assay of amyloid formation kinetics; assay type: physicochemical; details: 16 μM peptide, 10 mM PBS pH 7.4, 25° C., no stirring; for amyloid formation monitored by thioflavin-T fluorescence: 1 week and 6 week incubations
Experimental: Sample Preparation. Each peptide was dissolved into 100% hexafluoroisoproponal (HFIP) to make a 0.5 mM stock solution. Stock solutions were filtered using […] Acrodisc syringe filter with a GHP membrane and the required amount of peptide was lyophilized overnight to remove HFIP. Dry peptide was dissolved into the appropriate buffer for the fluorescence assays. Fluorescence Assays. Thioflavin-T binding assays, conducted without HFIP or stirring at 25° C., were utilized to monitor amyloid formation kinetics. Fluorescence measurements were performed using a Spectramax Gemini EM plate reader. Corning 96-well non-binding surface black plates with lids were used and were sealed with polyethylene sealing tape. Samples were prepared by dissolving dry peptide into 10 mM PBS buffer (pH 7.4) and 32 μM thioflavin-T solution immediately before the measurement. Thioflavin-T fluorescence was measured with 450 nm excitation and emission at 485 nm was monitored. The final concentrations were 16 μM peptides. After creating the mutant-hIAPP polypeptides of the present disclosure, applicants tested the propensity of the different analogs to form amyloid at pH 7.4 using thioflavin-T fluorescence assays (FIGS. 2A-D) and TEM (FIGS. 3A-E). […] Amyloid formation follows a sigmoidal time course consisting of a lag phase in which few, if any, fibrils are formed, followed by a growth phase and a saturation phase in which amyloid fibrils are in equilibrium with soluble peptide.

[2] = Transmission electron microscopy (TEM) of amyloid aggregates; assay type: physicochemical; details: for amyloid aggregates in TEM images: after 7 days of incubation, end of kinetic experiment
Experimental: Transmission Electron Microscopy (TEM). TEM images were recorded using an FEI Bio TwinG^2 Transmission Electron Microscope at the central microscopy center at Stony Brook University. 15 μL aliquots of the samples used for fluorescence assays were removed at the end of each kinetic experiment, blotted on a carbon formvar-coated 300-mesh copper grid for 1 min and then negatively stained with saturated uranyl acetate for 1 min. Images were taken at a 68,000× magnification and 100 nm under focus. Mutant-hIAPP polypeptides of the present disclosure were further analyzed using TEM. […] In contrast, no amyloid fibrils were formed after a 1 week (FIGS. 3B-E, left) or 6 week (FIGS. 3B-E, right) culture with the any of the mutant-hIAPP analogs tested.

[3] = target: T1, human calcitonin receptor (hCT(a)) (Homo sapiens, UniProt P30988); test: cAMP production (LANCE cAMP assay) in transfected Cos-7 cells; assay type: cell-based; details: Cos-7 cells expressing hCT(a)
T1 construct: expressed in transfected cells; host or cells: Cos-7 cells, transient transfection with PEI, pcDNA3.1 vectors
T1 sequence (P30988 25-474): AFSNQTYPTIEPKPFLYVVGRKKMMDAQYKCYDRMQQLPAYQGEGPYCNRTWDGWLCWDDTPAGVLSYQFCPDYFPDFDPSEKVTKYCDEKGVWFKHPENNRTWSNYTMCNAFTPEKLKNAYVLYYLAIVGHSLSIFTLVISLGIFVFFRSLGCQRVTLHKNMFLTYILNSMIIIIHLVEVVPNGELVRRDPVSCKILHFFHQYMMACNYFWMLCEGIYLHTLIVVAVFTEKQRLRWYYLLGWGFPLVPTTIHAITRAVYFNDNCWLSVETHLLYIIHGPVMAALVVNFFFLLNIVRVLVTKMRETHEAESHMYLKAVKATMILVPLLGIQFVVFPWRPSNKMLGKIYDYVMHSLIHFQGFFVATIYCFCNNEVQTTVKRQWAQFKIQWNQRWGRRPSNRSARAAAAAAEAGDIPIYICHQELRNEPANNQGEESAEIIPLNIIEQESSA
Experimental: (§1) Cell Culture and Transfection. Cos-7 cells were cultured and transfected for receptor activity assays as previously described in Bailey, R. J., and Hay, D. L. Peptides (2006) 27, pp. 1367-1375, the entire contents of which is incorporated herein by reference. Specifically, cells were cultured in Dulbucco's modified eagle medium (DMEM) with 8% heat-inactivated fetal bovine serum (FBS) and kept in a 37° C. humidified 95% air/5% CO2 incubator. Cells were plated at a density of 18,000-20,000 cells/well (depending on cell passage) in 96-well culture plate and returned to the incubator for approximately 18-24 hours. Transient transfections were carried out using polyethyleneimine (PEI) as described previously and maintained at 37° C. in a humidified 95% air/5% CO2 incubator for 36-48 hours. All DNA constructs used in this these were in pcDNA3.1 vectors.
(§2) cAMP Assay: Measurement of intracellular cAMP was achieved using a time-resolved fluorescent resonance energy transfer assay (LANCE cAMP assay, PerkinElmer), similar to the previously described Alphascreen assay as described in Gingell, J. J., et al. Peptides (2010) 31, pp. 1400-1404, with the following changes. Following stimulation with peptide agonist, cAMP assay media from the wells was thoroughly aspirated and 50 μl of ice-cold absolute ethanol added to each well. Plates were then placed in a −30° C. freezer for 10 minutes or overnight prior to assay, then removed and allowed to air dry in a fume hood for 1-2 hours. After ethanol evaporated from the plates, 50 μl of LANCE detection buffer (lysis buffer, 0.35% Triton X-100, 50 mM HEPES and 10 mM calcium chloride in ddH2O, pH 7.4) was added per well and left on a plate shaker for 10-15 minutes at room temperature. Meanwhile, a cAMP standard curve was generated using LANCE detection buffer and a serially diluted cAMP standard (50 μM) ranging from 1 μM to 10 pM. The serially diluted cAMP standards (5 μl) and cell lysates (5 μl) were transferred into 384-well opti-plates and sealed with a Sealplate®-A-384-well microplate adhesive film and briefly centrifuged (10 seconds, 500 rpm, 23° C.). A 1:200 dilution of LANCE assay Alexa Fluor® 647 anti-cAMP antibody was prepared in detection buffer and 5 μl added to each well. Plates were sealed and briefly centrifuged again (10 seconds, 500 rpm, 23° C.) and left to incubate, sealed for 30 minutes at room temperature. During this incubation, detection mix was made up consisting of detection buffer, Europium-W8044 labelled streptavidin (1:4500) and biotin-cAMP (1:1500). After 30 minutes incubation, 10 μl of detection mix was added to each well, plates were centrifuged (30 seconds, 500 rpm, 23° C.), sealed and left to incubate for 1 hour at room temperature. Plates were read after an overnight incubation on an Envision plate reader. A standard curve was included in each experiment to ensure accurate quantification of cAMP.
(§3) Data Analysis for Receptor Assays: Data were derived from independent experiments for statistical analysis and all experiments were performed and replicated. Quantification of cAMP was obtained from a standard curve included in each experiment and plotted using the software GraphPad Prism 6.0 (GraphPad Software Inc, San Diego, Calif., USA) with a non-linear regression 3-parameter logistic equation with a Hill Slope of 1 to determine the pEC50. The pEC50 values from the fits were combined from different experimental days and statistically tested for difference from the WT peptide using the Student's t-test with statistical significance defined as * p<0.05, ** p<0.01, *** p<0.001. Due to variability in amount of cAMP produced between experimental days, data were normalized to the control peptide for each experiment to obtain Emax values. For each analogue, data were normalized to the maximum (Emax) and minimum (Emin) responses of h-amylin. […]

[4] = target: T2, human amylin receptor (hAMY1(a)) (Homo sapiens, UniProt O60894+P30988); test: as above; assay type: cell-based; details: Cos-7 cells expressing hAMY1(a)
T2 construct: expressed in transfected cells; host or cells: Cos-7 cells, transient transfection with PEI, pcDNA3.1 vectors
T2 sequence (O60894 27-148 partner, one chain of several): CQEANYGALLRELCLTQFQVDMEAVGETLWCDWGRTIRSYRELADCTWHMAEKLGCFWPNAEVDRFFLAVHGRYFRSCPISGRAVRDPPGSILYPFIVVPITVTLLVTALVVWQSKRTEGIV
Experimental: as §1, §2, §3

[5] = pH 7.4
Experimental: Dry peptides were dissolved into 10 mM PBS buffer at pH 7.4 at different initial concentrations, and were incubated for 7 days at 25° C. without stirring. Each sample was then centrifuged using a Beckman Coulter Microfuge 22R Centrifuge at 24° C. for 20 min. The relative centrifugal force used was 1.75×10^4 g. Solubility of each sample was approximated by measuring the absorbance of the corresponding supernatant at 280 nm measured using a Beckman Coulter DU 730 UV/Vis Spectrophotometer.
Each peptide tested was incubated in 10 mM PBS buffer at pH 7.4 for 7 days at three different concentrations (100 μM, 500 μM and 1 mM) and the solution was then centrifuged. The apparent solubility was represented by the absorbance of the supernatant of each sample measured at 280 nm. The extinction coefficients of all polypeptides are very similar at 280 nm since they all contain the same aromatic residues and each contains a disulfide bond. […] A peptide which is soluble at 1 mM and above will show a linear dependence of absorbance on initial concentration. A peptide which is less soluble will deviate from linearity. The peptides were centrifuged after 7 days and their apparent solubility measured by measuring the absorbance at 280 nm of the supernatant of each solution. The apparent concentration refers to the concentration which would be obtained if all of the peptide dissolved. The absorbance of the supernatant is directly proportion to the amount of peptide in solution.

[6] = pH 7
Experimental: 100 μL each solution was obtained immediately following dissolution with Novolin-N® and was centrifuged using a Beckman Coulter Microfuge (22R Centrifuge) at 24° C. for 20 minutes. The relative centrifugal force used was 1.75×104 g. Aliquots of each sample were immediately frozen and lyophilized. The remaining portion of each sample was not centrifuged and were incubated at 25° C. without stirring. Samples were collected again following the same procedures after 1 day, 7 days and 30 days. Dry samples were redissolved in 4:1 HPLC buffer mix (4A:1B, below) and immediately injected for liquid chromatography-mass spectroscopy (LC-MS) measurements. The HPLC buffers were (A) H2O (0.1% acetic acid and 0.02% TFA) and (B) CH3CN (0.1% acetic acid and 0.02% TFA). Solubility of each co-formulated sample was determined by measuring the absorbance from the liquid chromatogram traces at 215±8 nm and at 277±8 nm at each time point tested. points (0 hours, 24 hours, 7 days and 30 days post-formulation).

Compound: CC[C@H](C)[C@H](NC(=O)[C@H](C)NC(=O)CNC(=O)[C@H](Cc1ccccc1)NC(=O)[C@H](CC(N)=O)NC(=O)[C@H](CC(N)=O)NC(=O)[C@H](CO)NC(=O)[C@H](CO)NC(=O)[C@H](Cc1c[nH]cn1)NC(=O)[C@@H](NC(=O)[C@H](CC(C)C)NC(=O)[C@H](Cc1ccccc1)NC(=O)[C@H](CC(N)=O)NC(=O)[C@H](C)NC(=O)[C@H](CC(C)C)NC(=O)[C@H](CCCNC(=N)N)NC(=O)[C@H](CCC(N)=O)NC(=O)[C@@H](NC(=O)[C@H](C)NC(=O)[C@@H]1CSSC[C@H](NC(=O)[C@@H](N)CCCCN)C(=O)N[C@@H](CC(N)=O)C(=O)N[C@@H]([C@@H](C)O)C(=O)N[C@@H](C)C(=O)N[C@@H]([C@@H](C)O)C(=O)N1)[C@@H](C)O)C(C)C)C(=O)N[C@@H](CC(C)C)C(=O)N[C@@H](CO)C(=O)N[C@@H](CO)C(=O)N[C@H](C(=O)N[C@@H](CC(N)=O)C(=O)N[C@H](C(=O)NCC(=O)N[C@@H](CO)C(=O)N[C@@H](CC(N)=O)C(=O)N[C@H](C(=O)N[C@@H](Cc1ccc(O)cc1)C(N)=O)[C@@H](C)O)C(C)C)[C@@H](C)O [Wild-type hIAPP, reference compound]
- time at which amyloid formation reaches the saturation phase ([1]; 32 μM thioflavin-T): ≤ 30 h
- amyloid formation monitored by thioflavin-T fluorescence [1]: forms significant amounts of amyloid
- amyloid fibrils in TEM images ([2]; after 1 week and 6 week time periods): typical amyloid fibril morphology
- amyloid aggregates in TEM images [2]: extensive amounts of amyloid fibers

Compound: CC[C@H](C)[C@H](NC(=O)[C@H](C)NC(=O)CNC(=O)[C@H](Cc1ccccc1)NC(=O)[C@H](CCCCN)NC(=O)[C@H](CC(N)=O)NC(=O)[C@H](CO)NC(=O)[C@H](CO)NC(=O)[C@H](Cc1c[nH]cn1)NC(=O)[C@@H](NC(=O)[C@H](CC(C)C)NC(=O)[C@H](Cc1ccccc1)NC(=O)[C@H](CC(N)=O)NC(=O)[C@H](C)NC(=O)[C@H](CC(C)C)NC(=O)[C@H](CCCNC(=N)N)NC(=O)[C@H](CCC(N)=O)NC(=O)[C@@H](NC(=O)[C@H](C)NC(=O)[C@@H]1CSSC[C@H](NC(=O)[C@@H](N)CCCCN)C(=O)N[C@@H](CC(N)=O)C(=O)N[C@@H]([C@@H](C)O)C(=O)N[C@@H](C)C(=O)N[C@@H]([C@@H](C)O)C(=O)N1)[C@@H](C)O)C(C)C)C(=O)N[C@@H](CC(C)C)C(=O)N1CCC[C@H]1C(=O)N[C@@H](CO)C(=O)N[C@H](C(=O)N[C@@H](CCCCN)C(=O)N[C@H](C(=O)NCC(=O)N[C@@H](CO)C(=O)N[C@@H](CC(N)=O)C(=O)N[C@H](C(=O)N[C@@H](Cc1ccc(O)cc1)C(N)=O)[C@@H](C)O)C(C)C)[C@@H](C)O [SEQ ID NO: 22] (HELM PEPTIDE1{K.C.N.T.A.T.C.A.T.Q.R.L.A.N.F.L.V.H.S.S.N.K.F.G.A.I.L.P.S.T.K.V.G.S.N.T.Y.[am]}$PEPTIDE1,PEPTIDE1,2:R3-7:R3$$$V2.0)
- concentration-response of cAMP production compared with wild-type hIAPP [3]: do not significantly alter amylin or calcitonin receptor activity
- EC50 ([3]; cAMP production, mean ± spread, read-out: Human calcitonin receptor binding data pEC50 (converted)): 2.82 nM
- concentration-response of cAMP production compared with wild-type hIAPP [4]: do not significantly alter amylin or calcitonin receptor activity
- EC50 ([4]; cAMP production, mean ± spread, read-out: Human Amylin1(a) receptor binding data pEC50 (converted)): 0.372 nM
- solubility at neutral pH (absorbance of supernatant at 280 nm) [5]: more substantially soluble than wild-type hIAPP
- solubility co-formulated with Novolin-N (absorbance at 215 nm and 277 nm, LC-MS) [6]: significantly higher absorbance when compared to both wild-type hIAPP and paramlintide
- amyloid formation monitored by thioflavin-T fluorescence [1]: none of the mutant hIAPP polypeptides forms amyloid
- amyloid aggregates in TEM images [2]: no aggregates are observed
